Test system: sensitized mice
Assay: Preliminary dose-response study of BUD in sensitized mice, histopathologic examination
Assay type: in vivo
Protocol: The dose of BUD chosen was based on preliminary dose-response studies with 5 to 50 μg of BUD as follows.
Each day, 5, 10, 15, 20 or 50 μg of BUD was administered to groups of sensitized mice, and the dose-dependent effects on the inflammatory parameters were evaluated.
The tissues were removed and fixed with 10% phosphate buffered formalin. Tissue samples were taken from the skin, spleen, liver, gastrointestinal tract, and kidney. The tissues were embedded in paraffin, sectioned at 5 μm thickness and stained with hematoxylin and eosin and analyzed using light microscopy.
Coded slides were examined by a pathologist in a blinded fashion for evidence of inflammatory changes, including epithelial hyperplasia and perivascular edema and accumulation of eosinophils, neutrophils, and mononuclear inflammatory cells. Each of the parameters evaluated was given an individual number score. Objective measurements of histopathological changes include aggregation of eosinophils around blood vessels (perivascular), accumulation of other inflammatory cells, presence of desquamation and hyperplasia of the epithelium, and infiltration of inflammatory cells.

For `CCCC1O[C@@H]2C[C@H]3[C@@H]4CCC5=CC(=O)C=C[C@]5(C)[C@H]4[C@@H](O)C[C@]3(C)[C@]2(C(=O)CO)O1` (stereo partly shown) [Daily BUD, budesonide], which “granulomas or abnormalities in any of the tissues evaluated” value is on record?
Its value is “no granulomas or abnormalities”.
